Experimental data from PMC9405216, “Antimicrobial and Cytotoxic Cyathane-Xylosides from Cultures of the Basidiomycete Dentipellis fragilis” (Antibiotics, 2022).
Converted amounts (≈) assume the structure as drawn. Where two headings read alike, the source gives them in different places. Marks after values point to notes of the source that are not given here.

Columns and labels:
Assay type in all cases: cell-based
[1] = system: Bacillus subtilis (DSM 10); test: Serial dilution MIC assay, Bacillus subtilis; conditions: overnight incubation, n.i. = no inhibition
Description: (§1) Serial dilution assays in 96-well microtiter plates were performed according to our standard protocol in order to determine the minimum inhibitory concentrations (MICs) of pure isolated compounds against different microorganisms. Essentially, aliquots of compounds 1–5 and 9 (20 µL), each with an initial concentration of 1 mg/mL, were diluted in MeOH together with the respective microorganisms to concentrations ranging between 67 µg/mL and 0.5 µg/mL in the 96-well plates, followed by overnight incubation. The MIC was then determined as the lowest concentration at which no growth of the test organism was observed. A broad spectrum of clinically approved test pathogens and sensitivity indicator strains were used in the assays (Table 4 and Table 5). Ciprofloxacin, oxytetracycline, kanamycin, and gentamycin were used as positive controls against bacterial pathogens, while nystatin was used as the positive control against fungi.

[2] = system: Mycolicibacterium smegmatis (ATCC 700084); test: Serial dilution MIC assay, Mycolicibacterium smegmatis; conditions: overnight incubation, n.i. = no inhibition
Description: as §1

[3] = system: Staphylococcus aureus (DSM 346); test: Serial dilution MIC assay, Staphylococcus aureus; conditions: overnight incubation, n.i. = no inhibition
Description: as §1

[4] = system: Actinobacter baumannii (DSM 30008); test: Serial dilution MIC assay, Actinobacter baumannii; conditions: serial dilution 67-0.5 µg/mL, overnight incubation, n.i. = no inhibition
Description: as §1

[5] = system: Chromobacterium violaceum (DSM 30191); test: Serial dilution MIC assay, Chromobacterium violaceum; conditions: overnight incubation, n.i. = no inhibition
Description: as §1

[6] = system: Escherichia coli (DSM 1116); test: Serial dilution MIC assay, Escherichia coli; conditions: overnight incubation, n.i. = no inhibition
Description: as §1

[7] = system: Pseudomonas aeruginosa (DSM PA14); test: Serial dilution MIC assay, Pseudomonas aeruginosa; conditions: serial dilution 67-0.5 µg/mL, overnight incubation, n.i. = no inhibition
Description: as §1

[8] = system: Candida albicans (DSM 1665); test: Serial dilution MIC assay, Candida albicans; conditions: serial dilution 67-0.5 µg/mL, overnight incubation, n.i. = no inhibition
Description: as §1

[9] = system: Pichia anomala (DSM 6766); test: Serial dilution MIC assay, Pichia anomala; conditions: overnight incubation, n.i. = no inhibition
Description: as §1

[10] = system: Rhodotorula glutinis (DSM 10134); test: Serial dilution MIC assay, Rhodotorula glutinis; conditions: overnight incubation, n.i. = no inhibition
Description: as §1

[11] = system: Schizosaccharomyces pombe (DSM 70572); test: Serial dilution MIC assay, Schizosaccharomyces pombe; conditions: overnight incubation, n.i. = no inhibition
Description: as §1

[12] = system: Mucor hiemalis (DSM 2656); test: Serial dilution MIC assay, Mucor hiemalis; conditions: overnight incubation, n.i. = no inhibition
Description: as §1

[13] = system: L929 (ACC2) mouse fibroblasts; test: MTT cytotoxicity test, L929; conditions: five days incubation, n.c. = no cytotoxicity
Text: (§2) A panel of mammalian cell lines was used to determine the cytotoxicity of the compounds following a previously published protocol. The assay was initially performed using the sensitive cell lines KB3.1 (human endocervical adenocarcinoma) and L929 (mouse fibroblasts). Active compounds were further tested using the cell lines MCF-7 (human breast adenocarcinoma), PC-3 (human prostate adenocarcinoma), SKOV-3 (ovarian carcinoma), A549 (human lung carcinoma), and A431 (human squamous cell carcinomas) (Table 6). The cell lines A549, KB 3.1, and L929 were cultured in DMEM (Gibco, provided by Thermo Fisher Scientific), PC-3 in F12-K (Gibco) and MC-7, and SKOV-3 and A431 in RPMI (Gibco). With the exception of A549, all cell lines were supplemented with 10% bovine serum (Gibco). All cell lines were cultured at 37 °C. The L929 and KB 3.1 cell lines were cultivated under an atmosphere of 10% (v/v) carbon dioxide. Cytotoxicity tests were then carried out using MTT (3-(4,5-dimethylthiazol-2-yl)-2,5-diphenyltetrazolium bromide) in 96-well microtiter plates. Serial dilutions of the compounds (60 µL aliquots, each with an initial concentration of 1 mg/mL) were added into 120 µL aliquots of cell suspension (50000 cells/mL) in the 96-well plates. These were incubated for five days, after which an MTT assay was performed. The absorbance was taken at 590 nm using an Elisa plate reader (Victor, Überlingen, Germany). The half-maximal inhibitory concentration (IC50), the concentration at which cell growth inhibition was 50% of the control, was calculated as described elsewhere.

[14] = system: KB3.1 (ACC158) human endocervical adenocarcinoma; test: MTT cytotoxicity test, KB3.1; conditions: KB3.1 human endocervical adenocarcinoma, five days incubation, n.c. = no cytotoxicity
Text: as §2

[15] = system: MCF-7 (A115) human breast adenocarcinoma; test: MTT cytotoxicity test, MCF-7; conditions: MCF-7 human breast adenocarcinoma, five days incubation
Text: as §2

[16] = system: A549 (ACC107) human lung carcinoma; test: MTT cytotoxicity test, A549; conditions: five days incubation
Text: as §2

[17] = system: PC-3 (ACC465) human prostate adenocarcinoma; test: MTT cytotoxicity test, PC-3; conditions: PC-3 human prostate adenocarcinoma, five days incubation
Text: as §2

[18] = system: SKOV-3 (ovarian carcinoma); test: MTT cytotoxicity test, SKOV-3; conditions: five days incubation
Text: as §2

[19] = system: A431 (ACC91) human squamous cell carcinomas; test: MTT cytotoxicity test, A431; conditions: five days incubation
Text: as §2

[20] = system: other cell lines (MCF-7, A549, PC-3, SKOV-3, A431); test: MTT cytotoxicity test, other cell lines of the panel; conditions: range over the cell lines other than L929 and KB3.1 (Table 6)
Text: as §2, with “These were incubated for five days, after which an MTT assay was performed.” left out, “The half-maximal inhibitory concentration (IC50), the concentration at which cell growth inhibition was 50% of the control, was calculated as described elsewhere.” left out

[21] = system: tested microorganisms (bacteria and fungi); test: Serial dilution MIC assays, whole panel of tested strains; conditions: all bacteria and fungi of Tables 4 and 5, result in words
Description: as §1

[22] = DSM10, serial dilution 67-0.5 µg/mL, read-out: MIC
[23] = DSM346, serial dilution 67-0.5 µg/mL, read-out: MIC
[24] = DSM10134, serial dilution 67-0.5 µg/mL, read-out: MIC
[25] = DSM2656, serial dilution 67-0.5 µg/mL, read-out: MIC
[26] = DSM30191, serial dilution 67-0.5 µg/mL, read-out: MIC

Molecule	MIC [1, 22] [µg/mL]	MIC [3, 23] [µg/mL]	MIC [4]	MIC ([6]; serial dilution 67-0.5 µg/mL)	MIC [7]	MIC [8]	IC50 ([13]; 120 h, read-out: IC50) [µM]	IC50 ([14]; KB 3-1, 120 h, read-out: IC50) [µM]	MIC ([2]; serial dilution 67-0.5 µg/mL)	MIC ([9]; serial dilution 67-0.5 µg/mL)	MIC ([11]; serial dilution 67-0.5 µg/mL)	IC50 [13]	IC50 [14]	also measured
CC(C)C1=C2C3CC=C4C5OC6C(O)(COC7OC(C4C76O)C3(C)CCC2(C)CC1)O5 (stereo not drawn) [Compound 1, dentifragilin A]	1 (≈ 2.32 µM)	4.2 (≈ 9.76 µM)	n.i.	n.i.	n.i.	n.i.	5.8	2.2	–	–	–	–	–	MIC ([2]; ATCC700084, serial dilution 67-0.5 µg/mL, read-out: MIC): 66.6 µg/mL (≈ 155 µM); MIC ([5]; serial dilution 67-0.5 µg/mL): n.i.; MIC ([9]; Hansenula anomala, DSM6766, serial dilution 67-0.5 µg/mL, read-out: MIC): 66.6 µg/mL (≈ 155 µM); MIC [10, 24]: 16.7 µg/mL (≈ 38.8 µM); MIC ([11]; DSM70572, serial dilution 67-0.5 µg/mL, read-out: MIC): 33.3 µg/mL (≈ 77.3 µM); MIC [12, 25]: 16.7 µg/mL (≈ 38.8 µM); IC50 ([15]; MCF7, 120 h): 700 nM; IC50 ([16]; Homo sapiens, 120 h): 2.8 µM; IC50 ([17]; 120 h): 2.3 µM; IC50 ([18]; Homo sapiens, SK-OV-3, 120 h): 1900 nM; IC50 ([19]; A-431, 120 h): 15.8 µM; IC50 [20]: 0.7 to 15.8 µM
CC(C)C1=C2[C@H]3CC=C4[C@@H]5O[C@@H]6[C@@]7(O)[C@@H](OC[C@]6(O)O5)O[C@@H]([C@@H]47)[C@]3(C)CC[C@@]2(C)CC1=O [Compound 2, dentifragilin B]	66.6 (≈ 150 µM)	66.6 (≈ 150 µM)	n.i.	n.i.	n.i.	n.i.	–	51	n.i.	n.i.	n.i.	no activity	–	MIC ([5]; serial dilution 67-0.5 µg/mL): n.i.; MIC ([10]; serial dilution 67-0.5 µg/mL): n.i.; MIC ([12]; serial dilution 67-0.5 µg/mL): n.i.
CC(C)C1=C2[C@H]3CC[C@@H]4CO[C@@]5(O)[C@H](O)CO[C@H]6O[C@@H]([C@@H]4[C@]65O)[C@]3(C)CC[C@@]2(C)CC1=O [Compound 3, dentifragilin C]	–	–	n.i.	n.i.	n.i.	n.i.	–	–	n.i.	n.i.	n.i.	not cytotoxic	not cytotoxic	MIC ([1]; serial dilution 67-0.5 µg/mL): n.i.; MIC ([3]; serial dilution 67-0.5 µg/mL): n.i.; MIC ([5]; serial dilution 67-0.5 µg/mL): n.i.; MIC ([10]; serial dilution 67-0.5 µg/mL): n.i.; MIC ([12]; serial dilution 67-0.5 µg/mL): n.i.; activity against all tested microorganisms [21]: devoid of any activity
CC(C)C1=C2[C@H]3CC[C@H](CO)[C@@H]4[C@H](O[C@@H]5OC[C@@H](O)[C@H](O)[C@@]54O)[C@]3(C)CC[C@@]2(C)CC1=O [Compound 4, dentifragilin D]	16.7 (≈ 37.1 µM)	33.3 (≈ 73.9 µM)	n.i.	n.i.	n.i.	n.i.	48.9	42.2	n.i.	n.i.	n.i.	weak activities	weak activities	MIC ([5]; serial dilution 67-0.5 µg/mL): n.i.; MIC [10, 24]: 66.6 µg/mL (≈ 148 µM); MIC [12, 25]: 66.6 µg/mL (≈ 148 µM)
CC(C)C1=C2[C@H]3CC=C(C=O)[C@@H]4[C@H](O[C@@H]5OC[C@@H](O)[C@H](O)[C@@]54O)[C@]3(C)CC[C@@]2(C)CC1 [Compound 5, dentifragilin E]	16.7 (≈ 38.6 µM)	16.7 (≈ 38.6 µM)	n.i.	n.i.	n.i.	n.i.	34.7	15.7	n.i.	n.i.	n.i.	weak activities	weak activities	MIC [5, 26]: 66.6 µg/mL (≈ 154 µM); MIC [10, 24]: 66.6 µg/mL (≈ 154 µM); MIC [12, 25]: 33.3 µg/mL (≈ 77 µM)
CC(C)C1=C2[C@H]3CC[C@H](CO)[C@@H]4[C@H](O[C@@H]5OC[C@@H](O)[C@H](O)[C@@]54O)[C@]3(C)CC[C@@]2(C)CC1 [Compound 6, dentifragilin F]	–	–	–	–	–	–	–	–	–	–	–	not cytotoxic	not cytotoxic	–
CO[C@H]1O[C@@]2(O)[C@H](O)CO[C@H]3O[C@H]4[C@@H]([C@@H]1CC[C@@H]1C5=C(C(C)C)CC[C@]5(C)CC[C@]14C)[C@]32O [Compound 7, dentifragilin G]	–	–	–	–	–	–	14.9	10.3	–	–	–	weak activities	weak activities	–
CO[C@H]1O[C@H]2[C@H](O)CO[C@H]3O[C@H]4[C@@H](C1=CC[C@@H]1C5=C(C(C)C)CC[C@]5(C)CC[C@]14C)[C@]32O [Compound 8, dentifragilin H]	–	–	–	–	–	–	10	2	–	–	–	–	–	–
O=C(O)c1cn(C2CC2)c2cc(N3CCNCC3)c(F)cc2c1=O [ciprofloxacin, reference compound]	–	–	–	–	–	–	–	–	–	–	–	–	–	MIC ([4]; read-out: MIC): 0.3 µg/mL (≈ 0.905 µM)
C/C(=C\c1csc(C)n1)[C@@H]1C[C@@H]2O[C@]2(C)CCC[C@H](C)[C@H](O)[C@@H](C)C(=O)C(C)(C)[C@@H](O)CC(=O)O1 [epothilon B, reference compound]	–	–	–	–	–	–	–	–	–	–	–	–	–	IC50 ([13]; read-out: IC50): 4.7e-05 µM; IC50 ([14]; read-out: IC50): 3.3e-05 µM; IC50 [15]: 0.03 nM; IC50 [16]: 9.5e-05 µM; IC50 [17]: 0.00015 µM; IC50 [18]: 0.051 nM; IC50 [19]: 6.7e-05 µM
NC[C@H]1O[C@H](O[C@H]2[C@H](O)[C@@H](O[C@H]3O[C@H](CO)[C@@H](O)[C@H](N)[C@H]3O)[C@H](N)C[C@@H]2N)[C@H](O)[C@@H](O)[C@@H]1O [kanamycin, reference compound]	–	–	–	–	–	–	–	–	1.7 ^b µg/mL	–	–	–	–	–
C[C@@H]1[C@H](O)[C@@H](C)/C=C/C=C/CC/C=C/C=C/C=C/C=C/C(O[C@H]2O[C@H](C)[C@@H](O)[C@H](N)[C@@H]2O)CC2O[C@](O)(CC(O)C(O)CCC(O)CC(O)CC(O)CC(=O)O[C@H]1C)CC(O)C2C(=O)O (stereo partly drawn) [nystatin, reference compound]	–	–	–	–	–	8.3 µg/mL (≈ 8.96 µM)	–	–	–	8.3 µg/mL (≈ 8.96 µM)	4.2 µg/mL (≈ 4.54 µM)	–	–	MIC ([10]; serial dilution 67-0.5 µg/mL): 2.1 µg/mL (≈ 2.27 µM); MIC ([12]; serial dilution 67-0.5 µg/mL): 4.2 µg/mL (≈ 4.54 µM)
CN(C)[C@@H]1C(O)=C(C(N)=O)C(=O)[C@@]2(O)C(O)=C3C(=O)c4c(O)cccc4[C@@](C)(O)[C@H]3[C@H](O)[C@@H]12 [oxytetracycline, reference compound]	4.2 (≈ 9.12 µM)	0.2 (≈ 0.434 µM)	–	–	–	–	–	–	–	–	–	–	–	MIC [5, 26]: 0.8 µg/mL (≈ 1.74 µM); MIC ([6]; DSM1116, serial dilution 67-0.5 µg/mL, read-out: MIC): 3.3 µg/mL (≈ 7.17 µM)
gentamycin [reference compound]	–	–	–	–	0.4 ^d µg/mL	–	–	–	–	–	–	–	–	–
